Experimental data as given in article PMC10525795, “Pharmacokinetics of Four Tyrosine Kinase Inhibitors in Adult and Paediatric Chronic Myeloid Leukaemia Patients” (Biomedicines, 2023).
Like-named read-outs stand apart in the source and are kept apart here. One block for each compound: values may come before it.

Columns and labels:
[1] = Cerebrospinal fluid drug concentration at end of dosing interval (Ctrough), HPLC–UV, patients with CML; type: in vivo, human; settings: for Cerebrospinal fluid concentrations, median (IQR): all sampled patients with CML on the drug
[2] = cited from earlier work
[3] = cited from earlier work; remark: listed apart in the source
p-glycoprotein (PGP) = test system: p-glycoprotein (PGP); design: method as in PMID 28256516; settings: cited from earlier work
[4] = test system: breast-cancer resistance protein (BRCP); design: method as in PMID 28256516; settings: cited from earlier work
[5] = cited from earlier work; remark: listed apart in the source
[6] = Plasma drug concentration at end of dosing interval (Ctrough), HPLC–UV, patients with CML; settings: for Plasma concentrations, median (IQR): all sampled patients with CML on the drug
BCR–-ABL kinase = settings: higher than imatinib; cited from earlier work

Compound: Cc1nc(Nc2ncc(C(=O)Nc3c(C)cccc3Cl)s2)cc(N2CCN(CCO)CC2)n1 [Dasatinib]
- Cerebrospinal fluid concentrations, median (IQR) [1]: 0.11 (0.06–0.32) µg/mL
- Cerebrospinal fluid concentrations, median (IQR) ([1]; listed as dasatinib): 0.11 µg/mL
- Median CSF level, paediatrics ([1]; paediatric patients, N = 36): 0.11 µg/mL
- Average half-life [2]: 1.3 to 5 h
- Distribution volume [2]: > 3 L/kg
- Time of concentration peak after administration ([2]; oral): 0.5 to 3 h
- Patients with drug-related pulmonary hypertension ([3]; adults with CML who are imatinib-resistant/intolerant): 2%
- Patients with drug-related pulmonary hypertension ([3]; newly diagnosed adults with CML): 5%
- Substrate of PGP (p-glycoprotein (PGP)): substrate
- Substrate of BCRP [4]: substrate
- Blood–brain barrier crossing [5]: ability to cross the blood–brain barrier
- Median plasma concentration, adults ([6]; adult patients, N = 3): 0.4 µg/mL
- Plasma concentrations, median (IQR) [6]: 0.06 (0.03–0.33) µg/mL
- Plasma concentrations, median (IQR) ([6]; listed as dasatinib): 0.06 µg/mL
- Median plasma concentration, paediatrics ([6]; paediatric patients, N = 36): 0.05 µg/mL

Compound: Cc1ccc(NC(=O)c2ccc(CN3CCN(C)CC3)cc2)cc1Nc1nccc(-c2cccnc2)n1 [Imatinib]
- Time of plasma peak ([2]; oral): 2 to 4 h
- Blood–brain barrier crossing [5]: ability to cross the blood–brain barrier

- Plasma concentrations, median (IQR) [6]: 0.19 (0.16–0.22) µg/mL
- Mean plasma concentration ([6]; two adult male patients): 190 ng/mL
Compound: Cc1cn(-c2cc(NC(=O)c3ccc(C)c(Nc4nccc(-c5cccnc5)n4)c3)cc(C(F)(F)F)c2)cn1 [Nilotinib]
- Average half-life [2]: approximately 15 h
- Bioavailability ([2]; oral): approximately 30%
- Time of concentration peak after administration ([2]; oral): 3 h
- Strength of inhibition of tyrosine kinase protein's activity versus imatinib (BCR–-ABL kinase): 20–50 times

- Cerebrospinal fluid concentrations, median (IQR) [1]: 0.65 (0.18–1.65) µg/mL
- Cerebrospinal fluid concentrations, median (IQR) ([1]; listed as ponatinib): 0.65 µg/mL
Compound: Cc1ccc(C(=O)Nc2ccc(CN3CCN(C)CC3)c(C(F)(F)F)c2)cc1C#Cc1cnc2cccnn12 [Ponatinib]
- Half-life [2]: approximately 24 h
- Time of peak concentration after administration ([2]; oral): ≤ 6 h
